The supplement of paper PMC5770543
± gives the standard deviation.

How the values were obtained:
[1] = target: Toxoplasma gondii RH tachyzoites; assay: EC50 growth inhibition (48 h luciferase)
[2] = tested on: Plasmodium falciparum 3D7; assay: % inhibition of schizont-to-ring transition vs DMSO; higher = more inhibition
Summary of the method: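 Tightly synchronised P. falciparum schizonts (about 40–42 hours post-invasion, 1% parasitemia, 2.5% hematocrit, AlbuMAX-supplemented RPMI) were exposed to compound at 1, 3 or 10 µM, with vehicle and positive controls. Cells were glutaraldehyde-fixed, Triton-permeabilised, stained with Hoechst 33342 and counted by flow cytometry (at least 100,000 events). Schizont-to-ring transition inhibition is new ring formation relative to vehicle controls, averaged over three experiments.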

[3] = tested on: Plasmodium falciparum 3D7; assay: EC50 growth inhibition (60 h, SYBR Green); conditions: stage: ring-stage start
[4] = tested on: Toxoplasma gondii RH tachyzoites; assay: % growth inhibition vs DMSO (48 h luciferase); higher = more inhibition; conditions: 10 µM
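For % growth inhibition vs DMSO (48 h luciferase) in this document: tested in triplicate wells of 96-well plates on confluent HFF monolayers, with 1% DMSO wells as negative control in four replicates.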

SMILES	EC50 growth inhibition [1] [nM]	% inhibition of schizont-to-ring transition ([2]; 1 µM) [%]	% inhibition of schizont-to-ring transition ([2]; 3 µM) [%]	% inhibition of schizont-to-ring transition ([2]; 10 µM) [%]	EC50 growth inhibition [3] [nM]	% growth inhibition [4] [%]
CCOc1ccc(-c2nonc2NC(=O)c2cccc(C)c2)cc1OCC	1620	81.4	80	78.5	374	96.5 ± 1.9
CCn1nc(-c2ccc(C(=O)OC)cc2)nc2c(=O)n(C)c(=O)nc1-2	2200	30.7	37.6	53.3	107	100.5 ± 0.19
CCc1ccc(Nc2cc(C)c3ccc(O)cc3n2)cc1	3050	58.8	82.3	80.4	286	97.8 ± 1.4
COCCNCC(O)Cn1c2ccc(Cl)cc2c2cc(Cl)ccc21 (stereo not drawn)	6290	5.35	32.1	67.1	700	99.95 ± 0.13
CCOc1ccc2nc(C)cc(Nc3ccc(N(C)C)cc3)c2c1	1440	44.9	65.7	69.3	410	98.02 ± 0.4
COc1cc(C(=O)ON=C(N)Cc2cccc3ccccc23)cc(OC)c1OC	836	7.84	57	73.7	218	99.01 ± 0.4
CN(C)c1ccc(C=Cc2nc(=O)c3ccccc3o2)cc1	264	44.1	60.6	70.1	522	99.12 ± 0.036
c1ccc2c(NCCc3c[nH]c4ccccc34)c3ccccc3nc2c1	170	57.4	60.8	71.5	201	100.1 ± 0.54
